# Where two headings read alike, the source gives them in different places. Marks after values point to notes of the source that are not given here.
# Legend:
# CB1 and CB2 receptors = conditions: literature, cited from earlier work
# CB1 receptor = target: T1, CB1 receptor (Rattus norvegicus, UniProt P20272); test: Radioligand displacement in whole rat brain (CB1) membrane preparations; assay type: binding; conditions: Tables 1 and 2
# T1 construct: Whole rat brains or dissected regions from live CD rats; tissue Charles River or Pel-Freez Biologicals; host or cells: whole rat brain (CD rats), P2 membrane
# T1 sequence (P20272 whole entry): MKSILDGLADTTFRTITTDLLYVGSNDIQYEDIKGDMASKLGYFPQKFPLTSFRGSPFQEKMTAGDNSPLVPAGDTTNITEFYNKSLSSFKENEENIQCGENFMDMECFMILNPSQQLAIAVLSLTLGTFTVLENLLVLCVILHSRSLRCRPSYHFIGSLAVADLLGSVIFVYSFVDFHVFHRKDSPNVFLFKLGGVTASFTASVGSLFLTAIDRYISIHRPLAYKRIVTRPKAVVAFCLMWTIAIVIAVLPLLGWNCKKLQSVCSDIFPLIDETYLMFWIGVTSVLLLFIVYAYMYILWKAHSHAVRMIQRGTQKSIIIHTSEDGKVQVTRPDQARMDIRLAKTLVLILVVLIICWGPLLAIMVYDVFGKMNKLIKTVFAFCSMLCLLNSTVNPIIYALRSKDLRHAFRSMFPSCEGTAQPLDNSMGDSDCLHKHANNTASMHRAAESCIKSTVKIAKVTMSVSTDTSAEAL
# Method in brief: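 Washed P2 membranes from whole rat brain (ca. 0.2 mg/mL) in 50 mM Tris.HCl, 1 mM EDTA, 3 mM MgCl2, pH 7.4 were incubated with radioligand and compound for 1 h at 30 °C, then filtered. IC50 values came from one- or two-site nonlinear fits and were converted to Ki by Cheng-Prusoff. Duplicates were run across 3–6 experiments.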
# human CB1 receptor = target: T2, human CB1 receptor (Homo sapiens, UniProt P21554); test: Radioligand displacement in human CB1 receptor-transfected cells (HEK-293); assay type: binding
# T2 construct: expressed in transfected cells; host or cells: HEK-293
# T2 sequence (P21554 whole entry): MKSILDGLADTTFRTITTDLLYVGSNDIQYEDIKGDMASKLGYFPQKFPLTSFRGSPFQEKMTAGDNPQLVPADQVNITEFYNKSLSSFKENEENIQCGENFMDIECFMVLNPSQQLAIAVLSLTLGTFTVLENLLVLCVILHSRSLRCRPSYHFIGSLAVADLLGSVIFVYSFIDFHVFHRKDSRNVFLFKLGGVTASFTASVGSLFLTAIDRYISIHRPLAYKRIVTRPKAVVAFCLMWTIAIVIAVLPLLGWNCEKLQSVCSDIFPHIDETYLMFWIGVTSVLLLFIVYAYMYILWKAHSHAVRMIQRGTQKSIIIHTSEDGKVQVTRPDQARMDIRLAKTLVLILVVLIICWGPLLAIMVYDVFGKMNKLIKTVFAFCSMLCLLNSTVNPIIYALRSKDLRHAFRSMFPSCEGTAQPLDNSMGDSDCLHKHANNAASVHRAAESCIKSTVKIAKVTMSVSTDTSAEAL
# Method in brief: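 Radioligand displacement was run on HEK-293 cells expressing human CB1, with incubation and separation as for rat brain membranes. IC50 values came from one- or two-site nonlinear regression and were converted to Ki by Cheng-Prusoff.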
# [1] = target: T3, G-protein-linked cannabinoid receptors (Rattus norvegicus, UniProt P20272); test: GTP-γ-[35S] binding in whole rat brain; assay type: biochemical; conditions: for Emax: read-out: Emax, GTP-γ-[35S] in Whole Rat Brain
# T3 construct: tissue Charles River or Pel-Freez Biologicals; host or cells: whole rat brain crude membrane homogenate
# T3 sequence (P20272 whole entry): as the sequence (P20272 whole entry) above
# From the text: Cannabinoid receptor-mediated alteration in GTP-γ-[^35S] binding.
# (§1) Introduction. The purpose of this assay was to characterize the functional activity of lead compounds identified by the radioligand competition binding assays described above. Data from the GTP-γ-[^35S] binding assay was used to determine if a compound was an agonist, antagonist or inverse agonist at G-protein-linked cannabinoid receptors. Agonist binding to a G-protein-linked receptor results in an increased affinity of the G-protein α-subunit for GTP relative to GDP. Eventually, an active αGTP complex forms to complete the stimulus-effector coupling. The α-subunit has intrinsic GTPase activity which generates a free α-subunit which can recombine with the β- and γ-subunits readying the G-protein for another signal transduction cycle. In the current assay, GTP-γ-[^35S] cannot be hydrolyzed by the α-subunit. Thus, the amount of bound GTP-γ-[^35S] is a marker for G-protein activation. In this assay, an agonist increases basal GTP-γ-[^35S] binding, an inverse agonist decreases basal binding and basal binding would be unaffected by an antagonist.
# Experimental Design. The specific binding of GTP-γ-[^35S], in the absence of test compound, was termed “basal” activity. Test compounds were characterized as agonist, antagonist, or inverse agonist based on their effect on basal activity. […] The concentrations spanned two orders of magnitude because affinity may not be related to efficacy. […] Effects of the test compounds are reported as the percent change from basal. More thorough dose-response analysis may be run to determine, for example, if a compound is a full or partial agonist.
# Methods. […] In a final volume of 0.5 mL, each assay tube contained: 0.02 mg crude membrane homogenate (0.1 mL), 200 μM GDP (0.05 mL; to reduce basal G-protein activity), 0.1 nM GTP-γ-[^35S] (0.05 mL) and several concentrations of test compound (0.05 mL) or an equivalent volume of vehicle (used for determination of total binding). Nonspecific binding was determined in the presence of 100 μM unlabeled GTP-γ-S (0.05 mL). Duplicate samples were incubated for 1 h at 30° C. Since this assay is amenable for use with high throughput screening methods, the binding assays were run using a 96-well plate format. Specific binding was calculated as total binding-nonspecific binding.
# human CB2 receptor = target: T4, human CB2 receptor (Homo sapiens, UniProt P34972); test: Displacement of 3H-CP55,940 in human CB2 receptor-transfected cells (CHO-K1); assay type: binding; conditions: radioligand 3H-CP55940, Tables 6 and 7
# T4 construct: expressed in transfected cells; host or cells: CHO-K1
# T4 sequence (P34972 whole entry): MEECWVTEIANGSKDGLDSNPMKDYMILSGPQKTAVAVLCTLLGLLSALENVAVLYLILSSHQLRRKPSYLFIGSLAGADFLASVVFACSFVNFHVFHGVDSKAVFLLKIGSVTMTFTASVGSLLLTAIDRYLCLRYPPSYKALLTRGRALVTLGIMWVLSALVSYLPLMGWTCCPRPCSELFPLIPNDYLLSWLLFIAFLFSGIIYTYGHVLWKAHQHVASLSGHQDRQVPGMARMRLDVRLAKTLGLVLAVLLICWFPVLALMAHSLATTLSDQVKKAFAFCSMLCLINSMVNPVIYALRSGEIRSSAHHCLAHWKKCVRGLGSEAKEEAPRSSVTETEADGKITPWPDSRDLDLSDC
# Experimental: (§2) Human CB2 receptor affinity. The relative selectivity of the analogs for CB1 versus CB2 receptors varied modestly regardless of the structural modifications examined to date.
# Methods—binding assay in transfected cell lines. The methods used for performing binding assays in transfected cells expressing human CB1 or CB2 receptors are those used above. The CB1 receptor involved a HEK-293 expression system whereas the CB2 receptor was expressed in CHO-K1 cells. […] The incubations and separations were then performed as described above for rat brain membrane preparations.
# Data analysis. Saturation and displacement data were analyzed by unweighted nonlinear regression of receptor binding data. For displacement studies, curve-fitting and IC50 calculation were done with GraphPad Prism (GraphPad Software, Inc., San Diego, Calif.), which fits the data to one and two-site models and compares the two fits statistically. A similar approach was used for the analysis of isotherm data for calculation of Kd's. A two-site fit was accepted only if it was statistically significant (p<0.05) and the following results were not observed:
# IC50 values were then converted to Ki values by reported methods (Cheng and Prusoff, 1973). The statistical evaluation of curve-fitting data allowed for a non-arbitrary conclusion based on the displacement data.
# [2] = target: T5, CB1 (human) clone receptors (Homo sapiens, UniProt P21554); test: GTP-γ-[35S] binding in CB1 (human) clone receptors; assay type: biochemical; conditions: assay run in CB1 (human) clone receptors
# T5 construct: expressed in transfected cells
# T5 sequence (P21554 whole entry): as the sequence (P21554 whole entry) above
# From the text: Cannabinoid receptor-mediated alteration in GTP-γ-[^35S] binding. In addition to assessing CB1 and CB2 receptor affinities, all of the compounds have been screened in the GTP-γ-[^35S] assay to begin characterization of the compounds as agonists, partial agonists, antagonists or inverse agonists.
# as §1, with “In the current assay, GTP-γ-[^35S] cannot be hydrolyzed by the α-subunit. Thus, the amount of bound GTP-γ-[^35S] is a marker for G-protein activation. In this assay, an agonist increases basal GTP-γ-[^35S] binding, an inverse agonist decreases basal binding and basal binding would be unaffected by an antagonist.” left out
# Methods. Binding was determined using membrane homogenates from whole brain The assays were conducted as previously described (Sim et al. 1996) on brain tissue prepared as described above. […] Nonspecific binding was determined in the presence of 100 μM unlabeled GTP-γ-S (0.05 mL). […] Specific binding was calculated as total binding-nonspecific binding.
# CB1 versus CB2 receptors = test: Relative selectivity of the analogs for CB1 versus CB2 receptors; conditions: CB1 versus CB2 binding, Tables 1, 6 and 7
# From the text: as §2
# [3] = read-out: Ki, displacement of 3H-CP55940, whole rat brain membranes, radioligand 3H-CP55940
# [4] = read-out: Ki, displacement of 3H-SR141716A, whole rat brain membranes, radioligand 3H-SR141716A
# [5] = whole rat brain membranes, radioligand 3H-CP55940
# [6] = whole rat brain membranes, radioligand 3H-SR141716A
# [7] = human CB1 transfected cells, radioligand 3H-CP55940, Table 3
# [8] = whole rat brain membranes, effects reported as percent change from basal
# [9] = read-out: Ki, displacement of 3H-CP55940, human CB2 transfected cells
# [10] = Ki, displacement of 3H-WIN55212-2, whole rat brain membranes, radioligand 3H-WIN55212-2
# [11] = whole rat brain membranes, radioligand 3H-WIN55212-2
# [12] = Ki, displacement of 3H-SR141716A
# [13] = Ki, displacement of 3H-WIN55212-2
# [14] = EC50, GTP-γ-[35S] in Whole Rat Brain, whole rat brain membranes, inverse agonist/antagonist activity
smiles,measurement,setting,value
"CCCCCCC(C)(C)c1ccc([C@@H]2C[C@H](O)CC[C@H]2CCCO)c(O)c1 [CP55,940]",affinity at CB1 and CB2 receptor sites,CB1 and CB2 receptors,approximately equal affinity
CCNC(=O)c1nn(-c2ccc(Cl)cc2Cl)c(-c2ccc(Cl)cc2)c1C [MF9725-54C],Ki,CB1 receptor; [3],0.0463 µM
same,Ki,CB1 receptor; [4],0.0615 µM
same,"Max. Disp. %, 3H-CP55940",CB1 receptor; [5],91.4%
same,"Max. Disp. %, 3H-SR141716A",CB1 receptor; [6],100%
same,Ki,"human CB1 receptor; Ki, displacement of 3H-CP55940, human CB1 transfected cells, radioligand 3H-CP55940, Table 3",0.137 µM
same,Ki,"human CB1 receptor; Ki, displacement of 3H-SR141716A, human CB1 transfected cells, radioligand 3H-SR141716A, Table 3",0.0351 µM
same,Ki,"human CB1 receptor; Ki, displacement of 3H-WIN55212-2, human CB1 transfected cells, radioligand 3H-WIN55212-2, Table 3",0.185 µM
same,"Max. Disp. %, 3H-CP55940",human CB1 receptor; [7],66.7%
same,"Max. Disp. %, 3H-SR141716A","human CB1 receptor; human CB1 transfected cells, radioligand 3H-SR141716A, Table 3",95.3%
same,"Max. Disp. %, 3H-WIN55212-2","human CB1 receptor; human CB1 transfected cells, radioligand 3H-WIN55212-2, Table 3",78.8%
same,Emax,[1]; [8],-46.9%
same,EC50,"[1]; whole rat brain membranes, inverse agonist/antagonist activity, read-out: EC50, GTP-γ-[35S] in Whole Rat Brain",30.3 µM
same,"Max. Disp. %, 3H-CP55940",human CB2 receptor; human CB2 transfected cells,59.6%
same,Ki,human CB2 receptor; [9],3.11 µM
CCCCCNC(=O)c1nn(-c2ccc(Cl)cc2Cl)c(-c2ccc(Cl)cc2)c1C [MF9725-67-17],Ki,CB1 receptor; [10],0.0126 µM
same,Ki,CB1 receptor; [3],0.0114 µM
same,Ki,CB1 receptor; [4],0.00683 µM
same,"Max. Disp. %, 3H-CP55940",CB1 receptor; [5],91.4%
same,"Max. Disp. %, 3H-SR141716A",CB1 receptor; [6],100%
same,"Max. Disp. %, 3H-WIN55212-2",CB1 receptor; [11],94.4%
same,"Max. Disp. %, 3H-CP55940",human CB1 receptor,87.1%
same,"Max. Disp. %, 3H-SR141716A",human CB1 receptor,89.9%
same,"Max. Disp. %, 3H-WIN55212-2",human CB1 receptor,89.9%
same,Ki,"human CB1 receptor; Ki, displacement of 3H-CP55940",0.0146 µM
same,Ki,human CB1 receptor; [12],0.00635 µM
same,Ki,human CB1 receptor; [13],0.0187 µM
same,EC50,[1]; [14],5.27 µM
same,Emax,[1],-7.4%
same,"Max. Disp. %, 3H-CP55940",human CB2 receptor; human CB2 transfected cells,75.9%
same,Ki,human CB2 receptor; [9],1.11 µM
CCCCCCCCCNC(=O)c1nn(-c2ccc(Cl)cc2Cl)c(-c2ccc(Cl)cc2)c1C [MF10110-10-21],Ki,"CB1 receptor; Ki, displacement of 3H-CP55940, whole rat brain membranes, radioligand 3H-CP55940",0.333 µM
same,Ki,"CB1 receptor; Ki, displacement of 3H-SR141716A, whole rat brain membranes, radioligand 3H-SR141716A",0.0882 µM
same,Ki,CB1 receptor; [10],0.0682 µM
same,"Max. Disp. %, 3H-CP55940",CB1 receptor; [5],79.5%
same,"Max. Disp. %, 3H-SR141716A",CB1 receptor; [6],85.8%
same,"Max. Disp. %, 3H-WIN55212-2",CB1 receptor; [11],68.6%
same,"Max. Disp. %, 3H-CP55940",human CB1 receptor,68.8%
same,"Max. Disp. %, 3H-SR141716A",human CB1 receptor,86.9%
same,"Max. Disp. %, 3H-WIN55212-2",human CB1 receptor,28.3%
same,Ki,"human CB1 receptor; Ki, displacement of 3H-CP55940",0.307 µM
same,Ki,human CB1 receptor; [12],0.0565 µM
same,Ki,human CB1 receptor; [13],3.55 µM
same,EC50,[1]; [14],294 µM
same,Emax,[1],-20.1%
same,Ki,"human CB2 receptor; Ki, displacement of 3H-CP55940, human CB2 transfected cells",22.9 µM
same,"Max. Disp. %, 3H-CP55940",human CB2 receptor; human CB2 transfected cells,53.8%
Cc1c(C(=O)NN2CCCCC2)nn(-c2ccc(Cl)cc2Cl)c1-c1ccc(Cl)cc1 [SR141716A],Ki for CB1 lower than for CB2,CB1 and CB2 receptors; selectivity for the CB1 over the CB2 receptor,over 50 fold
CCOC(=O)c1nn(-c2ccc(Cl)cc2Cl)c(-c2ccc(Cl)cc2)c1C [SH9631-56],EC50,[2],0.195 µM
same,"Emax, GTP-γ-[35S]",[2]; percent change from basal,−18.4^c
same,Ki,CB1 receptor; [3],0.0318 µM
same,Ki,CB1 receptor; [4],0.0289 µM
same,"Max. Disp. %, 3H-CP55940",CB1 receptor; [5],91.7%
same,"Max. Disp. %, 3H-SR141716A",CB1 receptor; [6],96.9%
same,"Max. Disp. %, 3H-CP55940",human CB1 receptor; [7],91.0%
same,Ki,"human CB1 receptor; read-out: Ki, displacement of 3H-CP55940",0.0448 µM
same,"Max. Disp. %, 3H-CP55940",human CB2 receptor; human CB2 transfected cells,51.4%
same,Ki,human CB2 receptor; [9],4.4 µM
Cc1c(C(=O)NCCO)nn(-c2ccc(Cl)cc2Cl)c1-c1ccc(Cl)cc1 [MF9725-93-31],CB1 selectivity (CB1 versus CB2),CB1 versus CB2 receptors,10 fold
same,Ki,CB1 receptor; [3],0.385 µM
same,Ki,CB1 receptor; [4],0.343 µM
same,"Max. Disp. %, 3H-CP55940",CB1 receptor; [5],73.2%
same,"Max. Disp. %, 3H-SR141716A",CB1 receptor; [6],85.5%
same,Emax,[1]; [8],-76.5%
same,EC50,"[1]; whole rat brain membranes, value above highest concentration tested (footnote), read-out: EC50, GTP-γ-[35S] in Whole Rat Brain, value is above highest concentration on displacement curve",≥ 1670 µM
same,"Max. Disp. %, 3H-CP55940",human CB2 receptor; human CB2 transfected cells,33.3%
same,Ki,human CB2 receptor; [9],4.27 µM

# — US6825209B2, “Compounds having unique CB1 receptor binding selectivity and methods for their production and use” (Research Triangle Institute, priority 2002, dated 2004)
